One assay addresses T1, hTRPM8 channel (Homo sapiens, UniProt Q7Z2W7).
T1 construct: host or cells: CHO cells
Put plainly: TRPM8 receptor assay, calcium entry (Fluo-8, FLIPR) in transfected CHO cells. The class given is cell-based. The note with it: for Potency Relative to L-menthol: ratio of TRPM8 EC50 values, menthol = 1.0.

Another assay deals with ostiomeatal complex. Put plainly: Case studies: nebulized cooling agent in subjects with rhinitis and rhinosinusitis. Particulars: for Relief of stuffiness and breathing: NasoNeb delivery in subjects with rhinosinusitis. It counts as in vivo, human. The text has this: Eight subjects with rhinitis and rhinosinusitis volunteered to test cooling agents delivered with the NasoNeb® nebulizer (FIG. 3). The results were clear, robust, and evident. No statistical analysis was necessary. In a 3 to 5-day course of nebulization t.i.d., all subjects reported the ability to manage and control stuffed-up breathing in their activities. All reported comfortable sleep. The sounds of sniffling and congestion of the nose (“sniffles”), snorting, or gurgling were still present, but to a lesser degree. The subject felt it was easier to blow out liquids from the nasal cavity onto a tissue, and the volume and frequency of blowing decreased. Viscous yellow mucus was less in volume and density. The number of wipes deposited daily into a waste basket decreased by >50%. The subjects-were cheerful and enthusiastic because nasal discomfort was under control. As one subject remarked: “The stuffed-up nose problem is now history!” Severat of these cases are reported below as “Case Studies.”
The subject was given a NasoNeb® nebulizer (unavailable in China) and five individual bottles containing 15 mL of a 1% GlyOiPr solution (suspended in 2% Tween 80, 5% ethanol, and 92% water). They were shown how to load the NasoNeb canister with about 2 mL of liquid and activate the device for a 3-second dose into each nostril. The recommended dosage was three times a day, starting in the morning and at about 6-hour intervals, and for five days.
The subject agreed to using the NasoNeb nebulizer with a cooling agent. They were given a NasoNeb nebulizer and three bottles, each containing 15 ml of a 1% GlyOiPr solution (suspended in 2% Tween 80, 5% ethanol, and 92% water). They were shown how to load the NasoNeb canister with about 2 mL of liquid and activate the device for a 3-second dose into each nostril. The recommended dosage was three times a day, starting in the morning and at about 6-hour intervals, and for five days. After a 5-day trial, the subject noted a significant improvement in sleep and comfortable breathing. […] Their headaches were gone, and their appetite improved. They were advised to continue using the Nebulizer/coolant for another week and then on an as-needed basis. Their family has noticed that the subject has become less withdrawn, more engaging, and interested in their surroundings.
The subject volunteered for a trial with GlyOiPr. They were given a NasoNeb® machine and a plastic squeeze bottle containing 50 mL of GlyOiPr at 3 mg/mL suspended in 1% ethanol/2% polysorbate 80. They learned how to load the canister and activate the pump. Then, they were instructed to rinse their nose thoroughly first thing in the morning and then use the Nebulizer at 5 sec per nostril to deliver the solution. The procedure was to be repeated at 2 hours and 5 hours later to total three daily activations. The subject was interviewed after dosing for three days. They said breathing was much easier at night after the dosing, and they slept well. Nasal secretions were still present but less in volume. […] They were encouraged to use the Nebulizer as needed but not to exceed three daily doses. Three weeks after the start of the experiment, they reported that they were in complete control of their rhinitis. They would do a single dose at night before sleep and one in the morning when needed. They no longer felt congested, and the headaches were gone. The slimy phlegm in the nostrils was gone, and crusting was absent. Their nose felt clean. Their social life improved.
Their main complaint was episodes at night when they would wake up and not be able to breathe comfortably. Sleep apnea and lung disorders were ruled out, and the diagnosis was rhinosinusitis. This was confirmed by a computerized tomography scan and endoscopic examination by a qualified ENT specialist. They agreed to test the preferred embodiments GlyOnPr, GlyOiPr, D-Ala-OnPr, and D-Ala-OiPr systematically, one after the other.

The test system of another assay is nasal cavity. Put plainly: Nebulizer screening of TRPM8 agonists for sensations in the nasal cavity. Particulars: NasoNeb nebulizer, 3 to 5 sec per nostril. It counts as in vivo, human.
The target of another assay is T2, TRPA1 (Homo sapiens, UniProt O75762).
T2 construct: expressed in transfected cells
T2 sequence (O75762 whole entry, species assumed): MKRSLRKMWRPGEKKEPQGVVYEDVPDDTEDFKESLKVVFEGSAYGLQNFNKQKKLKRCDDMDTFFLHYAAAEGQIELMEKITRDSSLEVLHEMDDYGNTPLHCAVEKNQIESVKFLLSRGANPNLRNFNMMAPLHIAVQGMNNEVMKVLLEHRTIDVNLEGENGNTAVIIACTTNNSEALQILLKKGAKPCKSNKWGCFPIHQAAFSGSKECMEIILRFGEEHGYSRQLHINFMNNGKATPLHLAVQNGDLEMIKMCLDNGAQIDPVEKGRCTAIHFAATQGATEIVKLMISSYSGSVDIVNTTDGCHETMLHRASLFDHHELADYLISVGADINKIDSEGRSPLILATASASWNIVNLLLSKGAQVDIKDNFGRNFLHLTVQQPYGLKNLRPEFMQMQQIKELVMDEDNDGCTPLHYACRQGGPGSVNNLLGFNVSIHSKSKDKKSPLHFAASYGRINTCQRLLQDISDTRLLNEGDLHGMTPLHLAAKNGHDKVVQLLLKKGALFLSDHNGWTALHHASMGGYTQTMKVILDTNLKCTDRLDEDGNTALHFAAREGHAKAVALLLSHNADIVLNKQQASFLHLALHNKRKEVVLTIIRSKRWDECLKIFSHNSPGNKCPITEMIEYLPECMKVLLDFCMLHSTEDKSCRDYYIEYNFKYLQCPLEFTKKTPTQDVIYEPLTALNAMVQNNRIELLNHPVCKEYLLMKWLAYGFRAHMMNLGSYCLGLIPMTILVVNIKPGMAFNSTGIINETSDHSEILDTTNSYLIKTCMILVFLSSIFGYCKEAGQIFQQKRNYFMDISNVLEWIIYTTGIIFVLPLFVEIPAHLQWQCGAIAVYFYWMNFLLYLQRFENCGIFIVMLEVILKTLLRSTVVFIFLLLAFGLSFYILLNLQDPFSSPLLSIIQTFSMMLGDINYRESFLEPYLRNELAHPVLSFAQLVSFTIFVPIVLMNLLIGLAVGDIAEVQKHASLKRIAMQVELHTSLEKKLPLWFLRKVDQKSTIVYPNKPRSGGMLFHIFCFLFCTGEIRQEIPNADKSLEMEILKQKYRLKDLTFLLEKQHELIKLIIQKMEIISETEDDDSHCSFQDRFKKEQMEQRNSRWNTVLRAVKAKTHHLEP
The assay is described as follows: TRPA1 specificity assay in transfected cells. The class given is cell-based. Particulars: FIG. 5; mustard oil positive control.

Entries after “also recorded” stand apart in the source; their conditions may differ.

T1 sequence (Q7Z2W7 whole entry): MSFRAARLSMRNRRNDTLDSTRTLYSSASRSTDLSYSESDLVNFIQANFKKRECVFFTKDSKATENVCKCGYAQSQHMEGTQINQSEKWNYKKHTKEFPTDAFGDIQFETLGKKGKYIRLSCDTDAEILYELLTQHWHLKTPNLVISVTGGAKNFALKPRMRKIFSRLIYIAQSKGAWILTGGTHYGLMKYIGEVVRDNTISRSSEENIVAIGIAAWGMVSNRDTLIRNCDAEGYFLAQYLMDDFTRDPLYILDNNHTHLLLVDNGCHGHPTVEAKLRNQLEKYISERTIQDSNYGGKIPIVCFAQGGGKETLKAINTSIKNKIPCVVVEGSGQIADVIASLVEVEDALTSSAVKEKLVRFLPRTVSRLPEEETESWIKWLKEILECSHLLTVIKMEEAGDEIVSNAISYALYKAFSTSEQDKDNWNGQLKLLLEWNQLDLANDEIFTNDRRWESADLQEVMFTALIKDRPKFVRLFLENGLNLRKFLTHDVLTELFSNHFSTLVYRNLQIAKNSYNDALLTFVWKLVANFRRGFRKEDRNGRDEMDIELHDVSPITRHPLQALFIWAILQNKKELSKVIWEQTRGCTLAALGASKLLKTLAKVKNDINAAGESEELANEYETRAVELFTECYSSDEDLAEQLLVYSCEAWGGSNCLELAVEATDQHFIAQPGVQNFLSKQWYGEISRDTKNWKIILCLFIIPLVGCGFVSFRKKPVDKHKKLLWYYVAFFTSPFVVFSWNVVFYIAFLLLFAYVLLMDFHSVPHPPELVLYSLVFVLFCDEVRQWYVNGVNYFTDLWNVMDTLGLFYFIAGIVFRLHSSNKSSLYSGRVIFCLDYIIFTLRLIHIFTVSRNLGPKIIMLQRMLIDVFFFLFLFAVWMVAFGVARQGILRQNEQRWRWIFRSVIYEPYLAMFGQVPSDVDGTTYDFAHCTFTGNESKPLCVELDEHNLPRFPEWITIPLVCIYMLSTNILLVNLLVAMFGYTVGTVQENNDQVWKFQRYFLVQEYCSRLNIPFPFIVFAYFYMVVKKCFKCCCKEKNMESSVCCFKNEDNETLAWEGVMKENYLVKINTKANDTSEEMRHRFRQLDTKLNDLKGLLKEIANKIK

For the molecule `CC(C)OC(=O)[C@@H](C)NC(=O)[C@@H]1C[C@H](C)CC[C@H]1C(C)C` [D-Ala-OiPr, (R)-2-[((1R,2S,5R)-2-isopropyl-5-methyl-cyclohexanecarbonyl)amino]-propionic acid i-propyl ester], the EC50 on hTRPM8 channel (CHO cells transfected with hTRPM8, Fluo-8 calcium kit, FLIPR) was determined as 260 nM. Further, the “Potency Relative to L-menthol” value at hTRPM8 channel worked out at 14.6. For the same molecule, the “Relief of stuffiness and breathing” value in the assay with ostiomeatal complex is given as “provided relief”. The “Sensory effects after delivery into the nasal cavity” value in the assay on nasal cavity is given as “Longer-acting than GlyOiPr. Excellent agent. It may have a slightly bitter taste”. The “Response of cells transfected with TRPA1” value at TRPA1 was “inactive”.

For the molecule `CC(C)OC(=O)CNC(=O)[C@@H]1C[C@H](C)CC[C@H]1C(C)C` [GlyOiPr, [((1R,2S,5R)-2-isopropyl-5-methyl-cyclohexanecarbonyl)-amino]-acetic acid isopropyl ester], the “Activity on TRPM8 transfected cells” value on hTRPM8 channel (FIG. 5) is “active”. Also, the “Potency Relative to L-menthol” value at hTRPM8 channel is reported as 7.6. Further, in the assay with ostiomeatal complex (GlyOiPr by NasoNeb three times a day), the “Number of Kleenex tissues used after treatment” value is recorded as “about five per day; also recorded: decline by half”. In addition, the “Relief of stuffiness and breathing” value in the assay on ostiomeatal complex was “immediate sensation of comfortable cooling in the nose and the ability to have unimpeded breathing; also recorded: provided relief”. For the same molecule, the “Decrease in number of wipes used to blow the nose” value in the assay with ostiomeatal complex (nebulization three times a day, several days) is reported as “at least 50%”. Also, the “Sensory effects after delivery into the nasal cavity” value with nasal cavity is “The sense of coolness is pure, without any harsh tones”. Moreover, the “Response of cells transfected with TRPA1” value at TRPA1 is on record as “do not respond; also recorded: activates TRPM8 but not TRPV1 or TRPA1”.

As a reminder, the EC50 is the concentration at which the effect is half-maximal.

The record behind these values is patent US20250288583A1, “Treatment of Mucus Hypersecretion” (priority 2024, published 2025).
